Reference: patent publication US10376520B2, “Methods for the treatment of cardiovascular disorders” (Galapagos NV, priority 2015, dated 2019)

System: RA patients
Assay: ApoA-I level (Selectra autoanalyzer), Study 4
Format: in vivo, human
Details: for ApoA-I level, 4 weeks CFB: 4 weeks change from baseline
Method: Randomized double-blind, placebo-controlled add on study in subjects with active RA who have an inadequate response to MTX monotherapy, in combination with methotrexate, administered for 4 weeks in the treatment of subjects with active rheumatoid arthritis who have an inadequate response to methotrexate alone.
Compound 1 (dosed as a [Compound 1:HCl:3H2O]) capsules administered orally in 30 mg, 75 mg, 150 mg, or 300 mg doses per day for 4 weeks.
ApoAI, and ApoB were measured on the Selectra autoanalyzer (Sopachem BV, 44-RI Straat 33, 4051 AP Ochten, The Netherlands). All assays were commercially available from DiaSys Diagnostic Systems GmbH, Alte Strasse 9, 65558 Holzheim, Germany.

## O=C(Nc1nc2cccc(-c3ccc(CN4CCS(=O)(=O)CC4)cc3)n2n1)C1CC1 [Compound 1, cyclopropanecarboxylic acid {5-[4-(1,1-dioxo-thiomorpholin-4-ylmethyl)-phenyl]-[1,2,4]triazolo[1,5-a]pyridin-2yl}-amide]
30 mg q.d.
  ApoA-I level, 4 weeks CFB: 5.2%
  ApoA-I level, Baseline: 148 mg/dL
  ApoA-I level, week 4: 155 mg/dL
75 mg q.d.
  ApoA-I level, 4 weeks CFB: 9.8%
  ApoA-I level, Baseline: 142 mg/dL
  ApoA-I level, week 4: 156 mg/dL
150 mg q.d.
  ApoA-I level, 4 weeks CFB: 5.5%
  ApoA-I level, Baseline: 140 mg/dL
  ApoA-I level, week 4: 147 mg/dL
300 mg q.d.
  ApoA-I level, 4 weeks CFB: 27.9%
  ApoA-I level, Baseline: 143 mg/dL
  ApoA-I level, week 4: 179 mg/dL
